In test [1] the target is T1, Amine oxidase [flavin-containing] B (Homo sapiens, UniProt P27338).
T1 sequence (P27338 whole entry): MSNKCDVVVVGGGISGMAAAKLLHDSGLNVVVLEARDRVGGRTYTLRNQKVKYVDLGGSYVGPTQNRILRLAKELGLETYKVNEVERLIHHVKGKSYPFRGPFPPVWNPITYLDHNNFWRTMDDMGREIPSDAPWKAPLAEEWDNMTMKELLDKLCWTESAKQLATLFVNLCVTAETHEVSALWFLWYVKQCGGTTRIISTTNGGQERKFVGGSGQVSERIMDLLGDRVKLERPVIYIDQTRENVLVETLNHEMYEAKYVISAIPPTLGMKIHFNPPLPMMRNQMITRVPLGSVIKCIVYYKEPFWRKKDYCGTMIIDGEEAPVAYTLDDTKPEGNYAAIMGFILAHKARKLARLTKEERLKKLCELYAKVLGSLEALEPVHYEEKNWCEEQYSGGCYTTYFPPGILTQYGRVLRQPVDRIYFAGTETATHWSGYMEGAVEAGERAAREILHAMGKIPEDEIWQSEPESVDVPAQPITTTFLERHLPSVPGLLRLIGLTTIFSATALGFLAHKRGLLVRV
Put plainly: Inhibition of human MAO-B using tyramine as substrate by amplex red assay.

Test [2] concerns the target T2, Amine oxidase [flavin-containing] B (Rattus norvegicus, UniProt P19643).
T2 sequence (P19643 whole entry): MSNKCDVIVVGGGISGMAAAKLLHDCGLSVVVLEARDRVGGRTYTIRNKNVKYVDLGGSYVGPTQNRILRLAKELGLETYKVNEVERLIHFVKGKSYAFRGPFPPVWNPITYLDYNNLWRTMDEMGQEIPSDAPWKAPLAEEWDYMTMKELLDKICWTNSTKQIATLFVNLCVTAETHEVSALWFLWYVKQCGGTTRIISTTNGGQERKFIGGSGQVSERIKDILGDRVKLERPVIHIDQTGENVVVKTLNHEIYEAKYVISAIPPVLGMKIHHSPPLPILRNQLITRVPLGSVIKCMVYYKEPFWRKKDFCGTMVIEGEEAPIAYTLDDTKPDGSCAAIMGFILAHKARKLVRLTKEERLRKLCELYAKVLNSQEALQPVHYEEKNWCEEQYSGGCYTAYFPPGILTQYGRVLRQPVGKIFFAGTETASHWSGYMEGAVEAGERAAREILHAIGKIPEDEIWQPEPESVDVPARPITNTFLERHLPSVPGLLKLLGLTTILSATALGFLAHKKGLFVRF
Put plainly: Inhibition of MAO-B expressed in Wistar rat liver preincubated for 30 mins followed by 4-(trifluoromethyl) benzylamine addition and measured after 90 mins by microplate reader analysis. The class given is tissue-based.

Test [3] concerns the target T3, Acetylcholinesterase (Electrophorus electricus, UniProt O42275). Put plainly: Inhibition of electric eel AChE using acetylthiocholine iodide as substrate preincubated for 5 mins followed by substrate addition and measured for 20 mins by DTNB reagent based Ellman's method. Background: Ellman's reagent forms a yellow product with free thiols.
For test [4], the target named is Cholinesterase (Equus caballus, UniProt P81908). Put plainly: Inhibition of horse serum BuChE using butyrylthiocholine iodide as substrate preincubated for 5 mins followed by substrate addition and measured for 20 mins by DTNB reagent based Ellman's method.
Sequence of Cholinesterase (Equus caballus, UniProt P81908) (P81908 whole entry): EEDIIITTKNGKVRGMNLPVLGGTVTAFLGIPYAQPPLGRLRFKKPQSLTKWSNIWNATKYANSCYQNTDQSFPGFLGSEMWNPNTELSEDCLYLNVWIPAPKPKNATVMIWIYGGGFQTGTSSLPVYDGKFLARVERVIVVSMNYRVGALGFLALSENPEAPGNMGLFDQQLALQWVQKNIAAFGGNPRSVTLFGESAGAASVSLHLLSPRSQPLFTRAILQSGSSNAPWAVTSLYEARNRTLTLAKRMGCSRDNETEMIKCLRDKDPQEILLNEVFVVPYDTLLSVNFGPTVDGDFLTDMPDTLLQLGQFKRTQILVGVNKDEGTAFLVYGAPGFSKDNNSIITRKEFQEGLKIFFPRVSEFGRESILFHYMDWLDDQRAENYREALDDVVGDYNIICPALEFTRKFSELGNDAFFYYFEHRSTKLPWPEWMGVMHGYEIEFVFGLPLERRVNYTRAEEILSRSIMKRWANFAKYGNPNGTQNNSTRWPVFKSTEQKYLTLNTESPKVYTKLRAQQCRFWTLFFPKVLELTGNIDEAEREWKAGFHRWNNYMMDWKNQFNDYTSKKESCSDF
In test [5] the target is T4, Amine oxidase [flavin-containing] A (Homo sapiens, UniProt P21397).
T4 sequence (P21397 whole entry): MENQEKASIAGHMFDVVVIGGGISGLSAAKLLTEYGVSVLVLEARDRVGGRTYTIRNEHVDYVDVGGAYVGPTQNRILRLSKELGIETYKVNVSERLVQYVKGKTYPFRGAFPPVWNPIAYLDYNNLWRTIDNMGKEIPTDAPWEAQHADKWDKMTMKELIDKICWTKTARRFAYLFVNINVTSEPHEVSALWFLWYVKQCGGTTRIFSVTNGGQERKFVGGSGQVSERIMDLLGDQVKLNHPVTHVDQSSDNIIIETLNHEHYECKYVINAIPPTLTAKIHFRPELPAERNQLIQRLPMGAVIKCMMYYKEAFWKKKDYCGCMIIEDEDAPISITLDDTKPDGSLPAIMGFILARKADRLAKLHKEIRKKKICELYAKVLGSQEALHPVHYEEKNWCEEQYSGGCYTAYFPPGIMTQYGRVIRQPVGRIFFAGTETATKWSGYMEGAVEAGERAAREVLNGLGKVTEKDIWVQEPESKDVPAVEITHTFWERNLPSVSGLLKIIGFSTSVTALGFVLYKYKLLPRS
Nature of the test: Inhibition of MAO-A (unknown origin) using kynuramine as substrate by spectrophotometric assay.

Test [6] has as its target T1, Amine oxidase [flavin-containing] B. Put plainly: Inhibition of MAO-B (unknown origin) using benzylamine as substrate by spectrophotometric assay.
Test [7] has as its target T3, Acetylcholinesterase. Nature of the test: Inhibition of electric eel AChE using acetylthiocholine iodide as substrate incubated for 6 mins followed by substrate addition by DTNB reagent based Ellman's method.
For test [8], the target named is T1, Amine oxidase [flavin-containing] B. Put plainly: Inhibition of recombinant human MAO-B using p-tyramine as substrate incubated for 15 mins followed by substrate addition and measured upto 20 mins by Amplex Red assay.
In test [9] the target is Acetylcholinesterase (Homo sapiens, UniProt P22303). Nature of the test: Inhibition of recombinant human AChE using acetylcholine as substrate preincubated for 15 mins followed by substrate addition and measured after 30 mins by Amplex Red reagent based fluorescence assay.
Sequence of Acetylcholinesterase (Homo sapiens, UniProt P22303) (P22303 whole entry): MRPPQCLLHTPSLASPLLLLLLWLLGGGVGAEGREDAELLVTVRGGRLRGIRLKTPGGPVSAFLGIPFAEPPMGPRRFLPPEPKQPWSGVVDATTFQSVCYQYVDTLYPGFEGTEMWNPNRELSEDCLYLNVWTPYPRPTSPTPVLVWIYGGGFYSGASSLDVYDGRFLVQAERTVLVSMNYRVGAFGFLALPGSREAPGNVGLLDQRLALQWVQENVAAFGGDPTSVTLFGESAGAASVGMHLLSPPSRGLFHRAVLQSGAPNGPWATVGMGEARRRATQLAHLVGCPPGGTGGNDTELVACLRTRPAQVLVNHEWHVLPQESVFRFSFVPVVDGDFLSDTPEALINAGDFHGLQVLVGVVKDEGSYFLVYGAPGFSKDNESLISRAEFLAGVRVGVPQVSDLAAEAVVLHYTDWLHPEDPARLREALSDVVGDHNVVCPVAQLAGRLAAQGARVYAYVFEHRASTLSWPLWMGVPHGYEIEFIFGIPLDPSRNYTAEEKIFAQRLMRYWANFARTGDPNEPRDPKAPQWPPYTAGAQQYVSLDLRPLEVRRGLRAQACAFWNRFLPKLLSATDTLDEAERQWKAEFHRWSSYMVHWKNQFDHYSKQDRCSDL
For test [10], the target named is Cholinesterase (Homo sapiens, UniProt P06276). Nature of the test: Inhibition of human BuChE using butyrylthiocholine iodide as substrate preincubated for 30 mins followed by substrate addition and measured after 15 mins by Ellman's method.
Sequence of Cholinesterase (Homo sapiens, UniProt P06276) (P06276 whole entry): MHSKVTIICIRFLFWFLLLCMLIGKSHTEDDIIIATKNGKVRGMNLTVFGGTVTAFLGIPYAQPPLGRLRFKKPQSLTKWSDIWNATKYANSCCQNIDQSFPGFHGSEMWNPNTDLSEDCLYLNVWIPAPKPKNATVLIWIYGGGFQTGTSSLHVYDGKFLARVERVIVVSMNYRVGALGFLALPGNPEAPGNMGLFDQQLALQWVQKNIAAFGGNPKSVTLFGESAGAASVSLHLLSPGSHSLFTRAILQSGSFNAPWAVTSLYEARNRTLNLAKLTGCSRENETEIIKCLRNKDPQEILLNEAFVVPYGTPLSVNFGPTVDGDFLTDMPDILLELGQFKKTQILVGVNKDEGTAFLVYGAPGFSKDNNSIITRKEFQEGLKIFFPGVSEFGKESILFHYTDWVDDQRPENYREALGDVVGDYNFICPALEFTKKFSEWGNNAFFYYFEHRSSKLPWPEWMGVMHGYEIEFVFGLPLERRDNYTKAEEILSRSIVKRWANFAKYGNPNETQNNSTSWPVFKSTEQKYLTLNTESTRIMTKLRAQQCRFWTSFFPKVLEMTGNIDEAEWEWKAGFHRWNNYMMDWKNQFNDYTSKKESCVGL
Test [11] concerns the target T4, Amine oxidase [flavin-containing] A. Nature of the test: Inhibition of human MAO-A using p-tyramine as substrate preincubated for 15 mins followed by substrate addition and measured after 30 mins by Ample red assay.
Test [12] has as its target T2, Amine oxidase [flavin-containing] B. Nature of the test: Inhibition of rat brain mitochondria MAO-B using p-tyramine as substrate incubated for 15 mins followed by substrate addition and measured for 15 by microplate fluorescence reader analysis.
The target of test [13] is T1, Amine oxidase [flavin-containing] B. Put plainly: Inhibition of MAO-B (unknown origin) using as tyramine as substrate by Ampliflu red reagent based fluorometric method.
Test [14] addresses T4, Amine oxidase [flavin-containing] A. Nature of the test: Inhibition of recombinant human MAO-A using p-tyramine as substrate incubated for 10 mins followed by substrate addition and measured 20 mins by fluorescence assay.
In test [15] the target is T1, Amine oxidase [flavin-containing] B. Nature of the test: Inhibition of recombinant human MAO-B using p-tyramine as substrate incubated for 10 mins followed by substrate addition and measured 20 mins by fluorescence assay.
The species named for a further test is Homo sapiens. Put plainly: Selectivity index, ratio of IC50 for inhibition of recombinant human MAO-B to IC50 for inhibition of recombinant human MAO-A.
The target of test [16] is T1, Amine oxidase [flavin-containing] B. Put plainly: Inhibition of human MAO-B.
For test [17], the target named is T4, Amine oxidase [flavin-containing] A. Nature of the test: Inhibition of recombinant human MAO-A using kynuramine as substrate incubated for 10 mins followed by substrate addition and measured for 20 mins by Fluorescence microplate reader assay.
Test [18] has as its target T1, Amine oxidase [flavin-containing] B. Put plainly: Inhibition of recombinant human MAO-B using kynuramine as substrate incubated for 20 min by fluorescent spectrophotometric assay.
For test [19], the target named is T4, Amine oxidase [flavin-containing] A. Nature of the test: Inhibition of recombinant human MAO-A expressed in insect cells using kynuramine as substrate incubated for 20 mins by Amplex Red reagent based fluorometric method.
Test [20] deals with T1, Amine oxidase [flavin-containing] B. Put plainly: Inhibition of recombinant human MAO-B expressed in insect cells using kynuramine as substrate incubated for 20 mins by Amplex Red reagent based fluorometric method.

SMILES strings stand for the structures. Bounds are passed on as bounds.

T3 sequence (O42275 whole entry): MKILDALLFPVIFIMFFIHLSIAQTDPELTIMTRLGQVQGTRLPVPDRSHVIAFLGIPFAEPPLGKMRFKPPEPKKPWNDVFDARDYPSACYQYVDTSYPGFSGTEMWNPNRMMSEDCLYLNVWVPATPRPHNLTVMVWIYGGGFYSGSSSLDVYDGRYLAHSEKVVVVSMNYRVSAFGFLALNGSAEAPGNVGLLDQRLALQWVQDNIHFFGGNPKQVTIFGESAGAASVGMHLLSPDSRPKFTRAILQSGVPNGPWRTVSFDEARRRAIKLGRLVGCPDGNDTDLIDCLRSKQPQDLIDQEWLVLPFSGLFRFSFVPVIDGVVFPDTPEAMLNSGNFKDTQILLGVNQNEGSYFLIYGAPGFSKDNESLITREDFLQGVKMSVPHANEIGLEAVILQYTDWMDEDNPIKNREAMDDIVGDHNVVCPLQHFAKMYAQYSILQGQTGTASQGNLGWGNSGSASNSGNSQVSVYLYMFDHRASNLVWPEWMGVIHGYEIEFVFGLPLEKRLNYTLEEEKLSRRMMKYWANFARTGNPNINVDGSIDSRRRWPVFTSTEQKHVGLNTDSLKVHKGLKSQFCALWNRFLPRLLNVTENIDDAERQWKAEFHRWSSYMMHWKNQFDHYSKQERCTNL

`Cc1ccc(C2=NO[C@H](c3ccc(Cl)c(Cl)c3)C2)cc1` yielded a half-inhibitory concentration (IC50) in [1] of 11000 nM. Consider `O=c1oc2c(O)c(O)ccc2cc1-c1ccc(O)c(O)c1`, for which the results for the IC50 (in test [2]; against Acetylcholinesterase [3]; on Cholinesterase [4]) were 27000 nM, 3040 nM and 8370 nM, respectively. For `O=C(/C=C/c1cccc(F)c1)c1ccc(N2CCOCC2)cc1`, the IC50 in test [5] was 45000 nM; in test [6] it was 87 nM.

With `Cc1c(Cl)c(=O)oc2cc(OCCCCSC(=S)N3CCCCC3C)ccc12` (stereo unspecified), the IC50 at Acetylcholinesterase [7] was determined as 6.8 nM; in test [8] it was 8.9 nM. For `C#CCOc1ccc(-c2cc(-c3ccc(OCCN4CCOCC4)cc3)nc(N)n2)cc1`, the IC50 at Acetylcholinesterase [9] was determined as 30.5 nM; at Cholinesterase [10], 666 nM; in [11], 18.3 nM. Regarding `C/C(=N\NC(=O)C1CC(c2ccccc2)=NO1)c1ccc(C)cc1` (stereo unspecified), in test [12], the IC50 worked out at 5.1 nM. For the molecule `Cc1c(Cl)c(=O)oc2cc(OCCCCSC(=S)N3C(C)CCCC3C)ccc12` (stereo unspecified), the results for the IC50 (on Acetylcholinesterase [7]; in test [8]) were 114 nM and 101 nM, respectively. Molecule `Cn1cc(/N=C/c2ccc([N+](=O)[O-])cc2)c(=O)n1-c1ccccc1` yielded an IC50 in test [13] of 49 nM. Regarding `CN(C)c1ccc(/C=C/C(=O)c2cc(Cl)sc2Cl)cc1`, the IC50 in test [14] is 1990 nM; in test [15] it was 40 nM. In addition, the Ratio IC50 in the test listed under Homo sapiens worked out at 0.02.

The molecule `O=C1CCC2(O)c3c(ccc(O)c31)-c1ccc(O)c3c1C2C1OC1C3=O` (stereo unspecified) returned a concentration for half-maximal inhibition (IC50) in test [16] above 80000 nM.

For `CCOc1ccc([N+](=O)[O-])c(N/N=C/c2cccn2C)n1`, the concentration for half-maximal inhibition (IC50) in test [17] stood at 6120 nM.

On to `CCOc1ccc([N+](=O)[O-])c(N/N=C/c2ccc(C(F)(F)F)cc2)n1`, for which the IC50 in test [17] is 13100 nM. Consider `O=c1cc(OCCN2CCOCC2)c2ccccc2o1`, for which the IC50 in test [18] is 372 nM. As to `COc1ccc(/C(C)=N/NC(=O)C2CC(c3ccccc3)=NO2)cc1OC` (stereo unspecified), the IC50 in test [12] stood at 5.9 nM.

With `CCCCOc1ccc(C2=NN(C(N)=S)C(c3ccccc3)C2)cc1` (stereo unspecified), the Ratio IC50 in the test listed under Homo sapiens is 9.55. In addition, the IC50 was 3630 nM in [19] and 380 nM in test [20].

The term IC50 denotes the concentration that gives 50% inhibition.
